Assay results from patent publication US12391686B2, “Compounds and uses thereof” (Foghorn Therapeutics Inc., priority 2019, dated 2025).

Columns and labels:
[1] = test system: non-synovial control cancer cell lines (RD, HCT116, and Calu6); experiment: Crystal violet growth assay in non-synovial control cancer cell lines, Example 4; format: cell-based; conditions: treated daily, day 14, FIG. 9
Procedure: (§1) Procedure: Cells were seeded into 6-well or 12-well plates and were treated daily with a BRD9 degrader (Compound 1), a bromo-domain BRD9 binder (Compound 2), E3 ligase binder (lenalidomide), DMSO, or staurosporin (positive control for cell killing), at indicated concentrations. The number of cells was optimized for each cell line. Growth media was refreshed every 5 days. By day 14, medium was removed, cells were washed with PBS, and stained using 500 μL of 0.005% (w/v) crystal violet solution in 25% (v/v) methanol for at least 1 hour at room temperature. Subsequently plates were scanned on an Odyssey CLx Imaging system.

[2] = test system: non-synovial control cancer cell lines (293T, A549, G401); experiment: Growth of non-synovial control cancer cell lines, Example 3; format: cell-based; conditions: FIGS. 5, 6, 7
Procedure: (§2) Procedures: Cells were treated with DMSO or the BRD9 degrader, Compound 1, at indicated concentrations, and proliferation was monitored from day 7 to day 14 by measuring confluency over time using an IncuCyte live cell analysis system (FIG. 5). Growth medium and compounds were refreshed every 3-4 days.
(§3) Cells were seeded into 12-well plates and treated with DMSO, 1 μM BRD9 inhibitor, Compound 2 (also known as BI-7273, see Martin et al, J Med Chem. 59(10):4462-4475 (2016); see structure of Compound 2 below), or 1 μM BRD9 degrader, Compound 1.
(§4) The number of cells was optimized for each cell line. Growth medium and compounds were refreshed every 3-5 days. SYO1, Yamato, A549, 293T and HS-SY-II cells were fixed and stained at day 11. ASKA cells were fixed and stained at day 23. Staining was done by incubation with crystal violet solution (0.5 g Crystal Violet, 27 ml 37% Formaldehyde, 100 mL 10×PBS, 10 mL Methanol, 863 dH2O to 1 L) for 30 min followed by 3× washes with water and drying the plates for at least 24 h at room temperature. Subsequently plates were scanned on an Odyssey CLx Imaging system (FIG. 6).
(§5) Cells were seeded into 96-well ultra low cluster plate (Costar, #7007) in 200 μL complete media and treated at day 2 with DMSO, Staurosporin, or BRD9 degarder, Compound 1, at indicated doses (FIG. 7). Media and compounds were changed every 5 d and cell colonies were imaged at day 14.

[3] = test system: synovial sarcoma cell lines (SYO1, HS-SY-II, and ASKA); experiment: Crystal violet growth assay in synovial sarcoma cell lines, Example 4; format: cell-based; conditions: for inhibition of the growth of the cells: SYO1, HS-SY-II, ASKA, treated daily, day 14, FIG. 8
Procedure: as §1

[4] = test system: SYO1 cells; experiment: Apoptosis assay (Annexin V-FITC Apoptosis Detection Kit); format: cell-based; conditions: 200 nM or 1 μM, 8 days, as compared to DMSO controls
Procedure: (§6) Procedure: SYO1 cells were treated for 8 or 13 days with DMSO, a BRD9 degrader (Compound 1) at 200 nM or 1 μM, or an E3 ligase binder (lenalidomide) at 200 nM. Compounds were refreshed every 5 days. Cell cycle analysis was performed using the Click-iT™ Plus EdU Flow Cytometry Assay (Invitrogen). The apoptosis assay was performed using the Annexin V-FITC Apoptosis Detection Kit (Sigma A9210). Assays were performed according to the manufacturer's protocol.

[5] = test system: SYO1 cells; experiment: Cell cycle analysis (Click-iT Plus EdU Flow Cytometry Assay); format: cell-based; conditions: 200 nM or 1 μM, 8 or 13 days, as compared to DMSO and lenalidomide
Procedure: as §6

[6] = test system: synovial sarcoma cell lines (SYO1, Yamato, HS-SY-II, and ASKA); experiment: Growth of synovial sarcoma cell lines (IncuCyte confluency, crystal violet, colony imaging), Example 3; format: cell-based; conditions: 1 μM or indicated doses, FIGS. 5, 6, 7
Procedure: as §2, §3, §4, §5

[7] = target: T1, Nanoluciferase-BRD9 fusion protein (3×FLAG-NLuc-BRD9) in SYO-1 cells (Homo sapiens, UniProt Q9H8M2); experiment: SYO1 BRD9 NanoLuc Degradation Assay; format: cell-based; conditions: 6 hours; SYO-1 cells expressing 3×FLAG-NLuc-BRD9; top dose 1 μM; read-out: SYO1 BRD9-NanoLuc degradation IC50
T1 construct: expressed in transfected cells; host or cells: SYO-1
T1 sequence (Q9H8M2 1-597): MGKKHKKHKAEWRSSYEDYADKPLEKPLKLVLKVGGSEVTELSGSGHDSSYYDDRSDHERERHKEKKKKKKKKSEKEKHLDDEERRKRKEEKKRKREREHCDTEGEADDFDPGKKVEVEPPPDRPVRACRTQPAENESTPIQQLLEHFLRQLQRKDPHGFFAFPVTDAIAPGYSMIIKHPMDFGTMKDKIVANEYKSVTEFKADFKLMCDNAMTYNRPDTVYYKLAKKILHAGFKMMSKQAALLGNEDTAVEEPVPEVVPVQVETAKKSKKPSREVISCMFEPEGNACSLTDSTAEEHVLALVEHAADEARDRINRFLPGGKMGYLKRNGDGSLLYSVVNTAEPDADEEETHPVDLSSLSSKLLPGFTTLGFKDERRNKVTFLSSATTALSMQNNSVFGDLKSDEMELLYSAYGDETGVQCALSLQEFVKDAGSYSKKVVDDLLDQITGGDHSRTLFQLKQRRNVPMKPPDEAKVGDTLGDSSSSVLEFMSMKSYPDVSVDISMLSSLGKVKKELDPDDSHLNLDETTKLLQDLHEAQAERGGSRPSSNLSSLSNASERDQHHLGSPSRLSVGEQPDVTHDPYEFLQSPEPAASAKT
How it was run: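 Stable 3×FLAG-NLuc-BRD9 SYO-1 line, 8000 cells/well, dosed day 1 with 10-point 3-fold dilutions (1 μM final top, duplicates) for 6 h. NanoLuc bioluminescence read with Nano-Glo; % inhibition relative to DMSO (high) and 1 μM reference BRD9 degrader (low) controls.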

[8] = target: T2, BRD9 bromodomain (Flag-BRD9 P133-K239; Swiss Prot Q9H8M2) (Homo sapiens, UniProt Q9H8M2); experiment: BRD9 Bromodomain TR-FRET Competition Binding Assay; conditions: competition with biotinylated BRD9 ligand; 90 minutes at room temperature
T2 construct: His-Flag-BRD9 (P133-K239); Swiss Prot Q9H8M2; His6 with TEV site (mgsshhhhhhenlyfq/) (N, cleaved yes); made in house
T2 sequence (Q9H8M2 133-239): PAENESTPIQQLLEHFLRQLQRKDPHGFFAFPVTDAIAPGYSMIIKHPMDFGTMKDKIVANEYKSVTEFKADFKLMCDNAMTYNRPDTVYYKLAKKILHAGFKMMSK
How it was run: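 Tag-cleaved Flag-BRD9 (P133-K239) at 3 nM final displacing 3.75 nM biotinylated ligand, with 7.5 nM APC-streptavidin and 0.2 nM Eu-anti-FLAG, in 50 mM HEPES pH 7.4, 50 mM NaCl, 1 mM TCEP, 0.01% Tween-20, 0.01% BSA. Read after 90 min at room temperature as 665/615 nm ratio.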

Row | Compound | inhibition of the growth of the cells [1] | inhibition of the growth of the cells [2] | inhibition of the growth of the cells [3] | growth inhibition compared with the other treatments ([3]; all synovial cell lines, versus Compound 2 and lenalidomide) | numbers of early- and late-apoptotic cells [4] | numbers of cells in the S-phase of the cell cycle [5] | inhibition of the growth of the cells [6] | DC50 [7] [nM] | IC50 [8] [nM]
1 | COc1cc(-c2cn(C)c(=O)c3cnccc23)cc(OC)c1CN(C)CC(=O)NCCOCCOCCNc1cccc2c1C(=O)N(C1CCC(=O)NC1=O)C2=O (stereo not shown) [Compound 1] | did not result in inhibition of the growth | does not result in inhibition of the growth | inhibition of the growth of the cells | most significant growth inhibition | increased numbers of early- and late-apoptotic cells | reduced numbers of cells in the S-phase | inhibition of the growth of the cells | – | –
2 | COc1cc(-c2cn(C)c(=O)c3cnccc23)cc(OC)c1CN(C)C [Compound 2] | did not result in inhibition of the growth | does not result in inhibition of the growth | inhibition of the growth of the cells | – | – | – | inhibition of the growth of the cells | – | –
3 | COc1cc(-c2cn(C)c(=O)c3cnc(N(C)CCOCCOCCNc4cccc5c4C(=O)N(C4CCC(=O)NC4=O)C5=O)cc23)cc(OC)c1CN(C)C (stereo not shown) [Compound D31, 4-[10-(5-[4-[(dimethylamino)methyl]-3,5-dimethoxyphenyl]-7-methyl-8-oxo-2,7-naphthyridin-3-yl)-4,7-dioxa-1,10-diazaundecan-1-yl]-2-(2,6-dioxopiperidin-3-yl)isoindole-1,3-dione] | – | – | – | – | – | – | – | ≥ 100 | ≥ 10
